{"source": "patent EP0534246A2", "about": "“Benzylamine derivatives and medicines with antiarrhythmic activity containing them” (BASF Aktiengesellschaft, priority 1991, dated 1993)", "origin": "cited, not measured here", "molecular_target": "K^+ATP-Kanal (Homo sapiens, UniProt Q14654)", "sequence (Q14654 whole entry)": "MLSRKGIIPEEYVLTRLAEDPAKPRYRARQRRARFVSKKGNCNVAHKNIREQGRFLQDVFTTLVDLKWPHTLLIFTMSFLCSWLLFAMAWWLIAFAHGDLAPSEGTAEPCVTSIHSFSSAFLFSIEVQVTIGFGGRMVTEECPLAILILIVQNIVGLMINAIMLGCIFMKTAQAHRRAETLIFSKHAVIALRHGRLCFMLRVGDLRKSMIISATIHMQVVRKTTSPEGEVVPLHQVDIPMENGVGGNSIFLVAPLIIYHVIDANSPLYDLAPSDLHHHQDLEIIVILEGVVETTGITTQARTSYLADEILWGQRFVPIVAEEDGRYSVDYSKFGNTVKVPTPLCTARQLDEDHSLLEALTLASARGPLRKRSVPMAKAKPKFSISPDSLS", "sequence (O60706 whole entry partner)": "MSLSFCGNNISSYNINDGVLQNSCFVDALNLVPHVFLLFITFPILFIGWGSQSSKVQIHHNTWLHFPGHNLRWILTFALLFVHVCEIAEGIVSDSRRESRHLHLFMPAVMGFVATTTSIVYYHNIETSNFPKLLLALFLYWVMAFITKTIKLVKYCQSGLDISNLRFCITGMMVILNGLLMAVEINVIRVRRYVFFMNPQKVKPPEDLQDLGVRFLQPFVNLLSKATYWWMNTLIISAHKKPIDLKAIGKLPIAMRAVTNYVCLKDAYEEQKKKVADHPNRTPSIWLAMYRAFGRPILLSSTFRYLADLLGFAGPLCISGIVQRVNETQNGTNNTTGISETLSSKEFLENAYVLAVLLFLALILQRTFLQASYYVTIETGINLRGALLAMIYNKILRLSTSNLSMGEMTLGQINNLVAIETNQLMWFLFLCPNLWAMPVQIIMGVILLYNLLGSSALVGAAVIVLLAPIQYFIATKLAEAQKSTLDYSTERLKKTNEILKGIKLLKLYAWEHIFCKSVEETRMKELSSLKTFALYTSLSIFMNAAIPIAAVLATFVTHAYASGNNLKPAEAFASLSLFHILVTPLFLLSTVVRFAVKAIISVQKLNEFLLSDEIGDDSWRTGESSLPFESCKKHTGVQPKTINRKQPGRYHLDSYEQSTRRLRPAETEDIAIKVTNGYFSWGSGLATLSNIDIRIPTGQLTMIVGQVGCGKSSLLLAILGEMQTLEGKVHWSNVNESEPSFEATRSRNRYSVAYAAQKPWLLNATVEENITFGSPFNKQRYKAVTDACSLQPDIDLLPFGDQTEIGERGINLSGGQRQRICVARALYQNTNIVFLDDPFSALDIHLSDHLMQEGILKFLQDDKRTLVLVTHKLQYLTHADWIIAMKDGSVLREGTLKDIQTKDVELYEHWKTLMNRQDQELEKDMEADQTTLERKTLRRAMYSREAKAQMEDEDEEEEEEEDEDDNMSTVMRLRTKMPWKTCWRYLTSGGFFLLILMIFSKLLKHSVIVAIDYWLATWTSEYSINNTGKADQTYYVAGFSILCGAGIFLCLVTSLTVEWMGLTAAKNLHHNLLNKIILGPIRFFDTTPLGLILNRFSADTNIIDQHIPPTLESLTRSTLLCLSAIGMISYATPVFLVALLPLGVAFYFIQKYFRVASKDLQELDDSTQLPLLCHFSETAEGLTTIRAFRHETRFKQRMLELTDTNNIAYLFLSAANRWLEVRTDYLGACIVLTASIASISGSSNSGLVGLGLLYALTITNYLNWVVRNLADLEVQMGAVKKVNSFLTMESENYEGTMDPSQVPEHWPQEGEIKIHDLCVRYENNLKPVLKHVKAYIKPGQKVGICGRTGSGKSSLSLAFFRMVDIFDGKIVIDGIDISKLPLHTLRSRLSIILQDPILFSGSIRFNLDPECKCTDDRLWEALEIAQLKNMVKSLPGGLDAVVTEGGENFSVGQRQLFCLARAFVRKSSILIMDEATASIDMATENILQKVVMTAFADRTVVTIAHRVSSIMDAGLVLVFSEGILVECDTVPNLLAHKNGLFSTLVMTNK", "conditions": "J. Mol. Cell. Cardiol. 21, Suppl. 2, S. 9, 1989"}
{"smiles": "CCCCCC(O)CCCC(=O)O", "note": "(stereo not shown) [5-Hydroxydekanoat]", "values": [{"measurement": "Konzentration, bei der Wirkung gezeigt wird (Blocker des ATP-abhängigen K+-Kanals)", "value": "ca. 100 um"}]}
